Data set [1] in a line: Volume of distribution in Sprague-Dawley rat plasma at 10 mg/kg, iv measured up to 48 hrs by LC-MS/MS analysis. The format is ADME, organism-based.
A short description of data set [2]: AUC(0 to infinity) in Sprague-Dawley rat plasma at 10 mg/kg, iv measured up to 48 hrs by LC-MS/MS analysis. The format is ADME, organism-based. Also on record: dose 10 mg/kg, time < 48 hrs, route iv.
Data set [3] can be described thus: MRT(0 to t) in Sprague-Dawley rat plasma at 100 mg/kg, po measured up to 48 hrs by LC-MS/MS analysis. In kind it is ADME, organism-based.
Data set [4] is described as follows: MRT(0 to t) in Sprague-Dawley rat plasma at 10 mg/kg, iv measured up to 48 hrs by LC-MS/MS analysis. In kind it is ADME, organism-based.
Data set [5] relates to A549. As to the kind of experiment: Antitumor activity against human A549 cells xenografted in Balb/c nude mouse assessed as tumor growth inhibition at 100 mg/kg, po administered once daily 24 days relative to control. In kind it is functional. The settings on record: A549, 576 h, time 24 day, read-out: TGI. On the technique in general: A xenograft is tissue or cells of one species grown in another, often human tumour cells in immunodeficient mice.

In data set [6] the test system is A549. Nature of the data set: Antitumor activity against human A549 cells xenografted in Balb/c nude mouse assessed as tumor growth inhibition at 150 mg/kg, po administered once daily 24 days relative to control. The format is functional, organism-based. The settings on record: time 24.0 day.
Data set [7] in a line: Toxicity in Balb/c nude mouse xenografted with human A549 cells assessed as change in body weight at 100 to 150 mg/kg, po administered once daily 24 days. The format is organism-based. The settings on record: in vivo, 576 h, dose 100-150 mg/kg, time 24 day.
In data set [8] the target is Voltage-dependent L-type calcium channel subunit alpha-1C (Homo sapiens, UniProt Q13936). As to the kind of experiment: Inhibition of Cav1.2 channel (unknown origin) incubated for 30 mins by Fluo-4 staining based FLIPR assay. The format is toxicity. The settings on record: 0.5 h.
Data set [9] can be described thus: Mutagenicity in Salmonella typhimurium TA100 measured at 1.5 to 1000 ug per well for 48 to 72 hrs by mini-Ames test. In kind it is toxicity, Salmonella enterica subsp. enterica serovar Typhimurium. The settings on record: in vivo; dose lower 1.5 µg, time lower 48 hrs, dose upper 1000 µg, time upper 72 hrs. In general terms: The Ames test detects mutagens through reverse mutation in bacteria.

Activity calls are given as the source filed them. No cut-off for these calls is given here.

Voltage-dependent L-type calcium channel subunit alpha-1C, sequence (Q13936 whole entry): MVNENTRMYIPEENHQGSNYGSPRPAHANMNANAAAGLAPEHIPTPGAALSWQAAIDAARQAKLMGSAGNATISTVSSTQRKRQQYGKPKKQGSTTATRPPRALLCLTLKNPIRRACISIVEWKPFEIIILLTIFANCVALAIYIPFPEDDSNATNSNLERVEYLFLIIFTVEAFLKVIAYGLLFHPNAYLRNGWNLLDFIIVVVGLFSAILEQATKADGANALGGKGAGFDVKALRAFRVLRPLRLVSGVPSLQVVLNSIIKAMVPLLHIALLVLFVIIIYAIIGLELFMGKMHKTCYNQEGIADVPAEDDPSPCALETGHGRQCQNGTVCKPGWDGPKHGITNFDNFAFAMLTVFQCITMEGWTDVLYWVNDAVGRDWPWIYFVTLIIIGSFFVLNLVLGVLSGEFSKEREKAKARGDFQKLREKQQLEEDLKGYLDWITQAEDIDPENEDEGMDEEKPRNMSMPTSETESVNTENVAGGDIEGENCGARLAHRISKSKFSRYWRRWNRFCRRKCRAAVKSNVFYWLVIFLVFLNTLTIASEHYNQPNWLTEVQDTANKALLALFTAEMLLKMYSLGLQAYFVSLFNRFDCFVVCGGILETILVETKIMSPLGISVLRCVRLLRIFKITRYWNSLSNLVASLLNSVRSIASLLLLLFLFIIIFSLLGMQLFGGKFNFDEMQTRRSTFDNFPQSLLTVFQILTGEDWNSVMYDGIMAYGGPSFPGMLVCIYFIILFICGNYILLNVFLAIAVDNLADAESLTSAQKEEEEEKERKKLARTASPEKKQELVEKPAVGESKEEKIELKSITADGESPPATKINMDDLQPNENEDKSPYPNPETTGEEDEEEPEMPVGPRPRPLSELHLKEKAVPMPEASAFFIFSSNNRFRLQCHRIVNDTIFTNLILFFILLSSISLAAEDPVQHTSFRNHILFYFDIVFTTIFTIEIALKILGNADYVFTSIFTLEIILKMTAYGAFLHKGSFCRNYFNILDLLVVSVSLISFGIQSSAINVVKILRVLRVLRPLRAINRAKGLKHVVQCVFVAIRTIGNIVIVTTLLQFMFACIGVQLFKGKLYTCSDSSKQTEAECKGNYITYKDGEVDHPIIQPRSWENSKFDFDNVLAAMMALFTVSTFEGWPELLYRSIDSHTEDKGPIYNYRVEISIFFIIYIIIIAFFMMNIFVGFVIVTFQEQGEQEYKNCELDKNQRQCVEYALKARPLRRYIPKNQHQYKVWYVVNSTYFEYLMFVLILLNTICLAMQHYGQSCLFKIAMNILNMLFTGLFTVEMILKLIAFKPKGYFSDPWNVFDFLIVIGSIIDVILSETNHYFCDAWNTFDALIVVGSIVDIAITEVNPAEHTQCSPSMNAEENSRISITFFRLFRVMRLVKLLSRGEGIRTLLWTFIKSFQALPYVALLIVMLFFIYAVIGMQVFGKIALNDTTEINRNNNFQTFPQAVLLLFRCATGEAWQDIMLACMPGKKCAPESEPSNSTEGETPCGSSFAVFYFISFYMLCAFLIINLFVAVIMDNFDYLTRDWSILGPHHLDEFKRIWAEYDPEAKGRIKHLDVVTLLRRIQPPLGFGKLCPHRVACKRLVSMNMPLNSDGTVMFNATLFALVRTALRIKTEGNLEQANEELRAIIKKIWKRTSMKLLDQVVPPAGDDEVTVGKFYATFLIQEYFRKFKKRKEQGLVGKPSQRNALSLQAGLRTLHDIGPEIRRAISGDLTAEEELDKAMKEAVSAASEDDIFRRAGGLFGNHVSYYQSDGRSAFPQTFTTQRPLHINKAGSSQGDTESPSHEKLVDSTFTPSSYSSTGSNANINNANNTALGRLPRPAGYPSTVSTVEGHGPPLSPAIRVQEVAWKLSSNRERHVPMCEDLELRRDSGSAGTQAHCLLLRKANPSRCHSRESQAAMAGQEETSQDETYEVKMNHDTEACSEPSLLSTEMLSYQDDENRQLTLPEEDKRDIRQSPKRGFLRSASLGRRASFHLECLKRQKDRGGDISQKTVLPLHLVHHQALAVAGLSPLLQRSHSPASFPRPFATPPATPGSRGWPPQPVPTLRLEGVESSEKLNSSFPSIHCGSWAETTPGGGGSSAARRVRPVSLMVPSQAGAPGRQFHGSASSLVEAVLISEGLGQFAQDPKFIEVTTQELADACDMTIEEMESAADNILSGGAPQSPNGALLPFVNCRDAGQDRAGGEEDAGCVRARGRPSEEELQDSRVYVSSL

A word on the Vd: it is a proportionality between amount in the body and measured concentration, not a real space. As a reminder, the AUC(0-inf) is the area under the concentration-time curve extrapolated to infinity. Usually MRT last stands for a mean duration of stay, worked out from the concentration-time curve. In turn, `O=C(Cc1cccc(Oc2ccccc2)c1)Nc1nnc(N[C@@H]2CCN(c3cccnn3)C2)s1` displayed a Vd in [1] of 15.7 L/kg. Further, the AUC(0-inf) in data set [2] came to 4630 ng·h/mL. The mean residence time MRT last at 48 h in data set [3] was 3.73 h; in data set [4], 1.52 h. For the same molecule, the inhibition in vivo at 100 mg/kg with A549 [5] worked out at 51.4%. The TGI result in the data set with A549 [6] was “Active”. The Activity entry in [7] and in data set [9] was “Non-Toxic” each time. Besides, in data set [8], the INH turned out to be 21.71 µM.

The record behind these values is ChEMBL document CHEMBL5370626, “Targeting the Subpocket Enables the Discovery of Thiadiazole-Pyridazine Derivatives as Glutaminase C Inhibitors” (ACS Med Chem Lett, 2023).
